In paper PMC3492160, “Identification of white campion (Silene latifolia) guaiacol O-methyltransferase involved in the biosynthesis of veratrole, a key volatile for pollinator attraction” (BMC Plant Biology, 2012):

What was measured:
[1] = tested on: T1, SlGOMT2; assay: radiometric methylation assay with […]-SAM, ethyl acetate extraction, double reciprocal plot; type: biochemical, Silene latifolia; conditions: SAM 200 μM constant; 5 mM MgCl2; Tris-HCl pH 7.5; room temperature; apparent Km
T1 construct: no tag removal described

[2] = tested on: T2, SlGOMT1; assay: as above; type: biochemical, Silene latifolia; conditions: SAM 200 μM constant; 5 mM MgCl2; Tris-HCl pH 7.5; room temperature; apparent Km
T2 construct: no tag removal described

- Km [1]: 501 ± 198 µM
- Km [2]: 9.79 ± 1.51 µM
SMILES: COc1ccccc1O [guaiacol]
